According to paper PMC11992225, “Antibacterial compounds against non-growing and intracellular bacteria” (npj Antimicrobials and Resistance, 2025):
Where “and” joins values, the source holds several entries; their conditions need not be identical. Identical values can stand only once.

Columns and labels:
[1] = system: non-growing S. aureus DSM2569; test: Dilution-regrowth assay (OD600, start-growth-time) on stationary-phase S. aureus; format: cell-based, Staphylococcus aureus; conditions: S. aureus; for Regrowth, OD600 at 6h or 8h after dilution into drug-free medium: average; for EC50: Staphylococcus aureus, DSM2569, regrowth delay of non-growing bacteria, 1:4 CA-MHB pH 7.4, 24 h treatment, OD600 8 h after dilution, read-out: EC50
In short: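 Non-growing S. aureus was tested in a dilution-regrowth format. Cells were cultured and treated for 24 h in 1:4 diluted CA-MHB, pH 7.4, then diluted into drug-free medium, and OD600 was measured every 20 min. Start-growth-time was the time OD600 passed 0.12. Dose-response curves were fitted with a five-parameter logistic equation to derive EC50.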

non-growing UPEC CFT073 = test: Dose-dependent killing analysis (CFU spot-plating) of stationary-phase UPEC; format: cell-based, Escherichia coli; conditions: individual replicates
In short: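 Killing assessed by CFU counts: overnight 37 °C LB agar spot plates (10 μl drops of 10-fold PBS dilutions) scored at the lowest dilution with distinct colonies. Samples were compound-treated non-growing UPEC CFT073, 200 μl per well. Performed as three biological replicates.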

[2] = system: non-growing P. aeruginosa DSM1117; test: Dose-dependent killing analysis (CFU spot-plating) of stationary-phase P. aeruginosa; format: cell-based, Pseudomonas aeruginosa; conditions: P. aeruginosa; for log10(CFU/ml) after treatment: individual replicates
In short: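 Viability by CFU: samples serially diluted 10-fold in PBS, spotted on LB agar, grown overnight at 37 °C, and colonies counted at the lowest resolvable dilution. Non-growing P. aeruginosa DSM1117 had been dosed for 24 h in 1:4 CA-MHB (pH 7.4); three biological replicates.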

[3] = system: non-growing S. aureus DSM2569; test: Dose-dependent killing analysis (CFU spot-plating) of stationary-phase S. aureus; format: cell-based, Staphylococcus aureus; conditions: for log10(CFU/ml) after treatment: S. aureus, individual replicates
In short: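 Survival was scored as CFU after overnight growth at 37 °C on LB agar, using spots from 10-fold PBS dilutions of treated cultures. Non-growing S. aureus DSM2569 had been exposed to compound for 24 h in 1:4 CA-MHB, pH 7.4. Three biological replicates were run.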

[4] = E. coli in 1:4 CA-MHB (pH 7.4), concentration 0.25
[5] = E. coli in 1:4 CA-MHB (pH 7.4), concentration 0.5
[6] = E. coli in 1:4 CA-MHB (pH 7.4), concentration 1
[7] = E. coli in 1:4 CA-MHB (pH 7.4), concentration 2.5
[8] = E. coli in 1:4 CA-MHB (pH 7.4), concentration 5
[9] = concentration 0.1, vs CFU before treatment
[10] = concentration 0.5, vs CFU before treatment
[11] = concentration 2.5, vs CFU before treatment

Compound: COc1c(N2C[C@@H]3CCCN[C@@H]3C2)c(F)cc2c(=O)c(C(=O)O)cn(C3CC3)c12 [Moxifloxacin]
- Regrowth, OD600 at 6h or 8h after dilution into drug-free medium ([1]; concentration 0.1): 0.607
- Regrowth, OD600 at 6h or 8h after dilution into drug-free medium ([1]; concentration 0.5): 0.484
- Regrowth, OD600 at 6h or 8h after dilution into drug-free medium ([1]; concentration 2.5): 0.330
- Regrowth, OD600 at 6h or 8h after dilution into drug-free medium ([1]; concentration 10): 0.150
- EC50 [1]: 4.82 µM
- log10(CFU/ml) after treatment (non-growing UPEC CFT073; [4]): 8.602 log10(CFU/ml) and 8.380 log10(CFU/ml) and 8.255 log10(CFU/ml)
- log10(CFU/ml) after treatment (non-growing UPEC CFT073; [5]): 8.041 log10(CFU/ml) and 7.903 log10(CFU/ml) and 7.699 log10(CFU/ml)
- log10(CFU/ml) after treatment (non-growing UPEC CFT073; [6]): 7.415 log10(CFU/ml) and 6.845 log10(CFU/ml) and 6.903 log10(CFU/ml)
- log10(CFU/ml) after treatment (non-growing UPEC CFT073; [7]): 5.954 log10(CFU/ml) and 5.230 log10(CFU/ml) and 5.380 log10(CFU/ml)
- log10(CFU/ml) after treatment (non-growing UPEC CFT073; [8]): 5.602 log10(CFU/ml) and 5.204 log10(CFU/ml) and 5.146 log10(CFU/ml)
- log10(CFU/ml) after treatment (non-growing UPEC CFT073; E. coli in 1:4 CA-MHB (pH 7.4), concentration 10): 6.114 log10(CFU/ml) and 4.903 log10(CFU/ml) and 5.000 log10(CFU/ml)
- log10(CFU/ml) after treatment ([2]; concentration 0.1): 8.699 log10(CFU/ml) and 8.778 log10(CFU/ml) and 8.477 log10(CFU/ml)
- killing, average Δlog10(CFU/ml) [2, 9]: 0.236 log10(CFU/ml)
- log10(CFU/ml) after treatment ([2]; concentration 0.5): 8.301 log10(CFU/ml) and 7.778 log10(CFU/ml) (2×)
- killing, average Δlog10(CFU/ml) [2, 10]: 0.935 log10(CFU/ml)
- log10(CFU/ml) after treatment ([2]; concentration 2.5): 5.845 log10(CFU/ml) and 6.301 log10(CFU/ml) and 4.699 log10(CFU/ml)
- killing, average Δlog10(CFU/ml) [2, 11]: 3.272 log10(CFU/ml)
- log10(CFU/ml) after treatment ([2]; concentration 10): =<4 log10(CFU/ml) (2×) and 4.477 log10(CFU/ml)
- killing, average Δlog10(CFU/ml) ([2]; concentration 10, vs CFU before treatment): 4.728 log10(CFU/ml)
- log10(CFU/ml) after treatment ([3]; concentration 0.1): 8.934 log10(CFU/ml) and 9.196 log10(CFU/ml) and 8.708 log10(CFU/ml)
- log10(CFU/ml) after treatment ([3]; concentration 0.5): 8.748 log10(CFU/ml) and 9.004 log10(CFU/ml) and 8.204 log10(CFU/ml)
- log10(CFU/ml) after treatment ([3]; concentration 2.5): 8.505 log10(CFU/ml) and 8.431 log10(CFU/ml) and 8.167 log10(CFU/ml)
- log10(CFU/ml) after treatment ([3]; concentration 10): 8.158 log10(CFU/ml) and 8.021 log10(CFU/ml) and 7.519 log10(CFU/ml)

Compound: CCCCCCCCN=c1ccn(CCCCCCCCCCn2ccc(=NCCCCCCCC)cc2)cc1 [Octenidine]
- Regrowth, OD600 at 6h or 8h after dilution into drug-free medium ([1]; concentration 0.1): 0.879
- Regrowth, OD600 at 6h or 8h after dilution into drug-free medium ([1]; concentration 0.5): 0.554
- Regrowth, OD600 at 6h or 8h after dilution into drug-free medium ([1]; concentration 2.5): 0.478
- Regrowth, OD600 at 6h or 8h after dilution into drug-free medium (average) ([1]; drug concentration 10): 0.086
- EC50 [1]: 3.3 µM
- log10(CFU/ml) after treatment (non-growing UPEC CFT073; [4]): 9.255 log10(CFU/ml) and 9.041 log10(CFU/ml) and 8.954 log10(CFU/ml)
- log10(CFU/ml) after treatment (non-growing UPEC CFT073; [5]): 9.041 log10(CFU/ml) and 9.176 log10(CFU/ml) and 9.301 log10(CFU/ml)
- log10(CFU/ml) after treatment (non-growing UPEC CFT073; [6]): 9.146 log10(CFU/ml) and 9.204 log10(CFU/ml) and 9.041 log10(CFU/ml)
- log10(CFU/ml) after treatment (non-growing UPEC CFT073; [7]): 9.000 log10(CFU/ml) and 8.903 log10(CFU/ml) and 8.778 log10(CFU/ml)
- log10(CFU/ml) after treatment (non-growing UPEC CFT073; [8]): 8.000 log10(CFU/ml) (2×) and 8.146 log10(CFU/ml)
- log10(CFU/ml) after treatment (non-growing UPEC CFT073; E. coli in LPM (pH 5.5), concentration 0.25): 7.301 log10(CFU/ml) and 7.568 log10(CFU/ml) and 7.886 log10(CFU/ml)
- log10(CFU/ml) after treatment (non-growing UPEC CFT073; E. coli in LPM (pH 5.5), concentration 0.5): 7.580 log10(CFU/ml) and 7.447 log10(CFU/ml) and 7.881 log10(CFU/ml)
- log10(CFU/ml) after treatment (non-growing UPEC CFT073; E. coli in LPM (pH 5.5), concentration 1): 7.447 log10(CFU/ml) and 7.663 log10(CFU/ml) and 7.778 log10(CFU/ml)
- log10(CFU/ml) after treatment (non-growing UPEC CFT073; E. coli in LPM (pH 5.5), concentration 2.5): 7.491 log10(CFU/ml) and 7.633 log10(CFU/ml) and 7.875 log10(CFU/ml)
- log10(CFU/ml) after treatment (non-growing UPEC CFT073; E. coli in LPM (pH 5.5), concentration 5): 7.380 log10(CFU/ml) and 7.663 log10(CFU/ml) and 7.863 log10(CFU/ml)
- log10(CFU/ml) after treatment ([2]; concentration 0.1): 10.204 log10(CFU/ml) and 9.447 log10(CFU/ml) and 9.415 log10(CFU/ml)
- killing, average Δlog10(CFU/ml) [2, 9]: -0.305 log10(CFU/ml)
- log10(CFU/ml) after treatment ([2]; concentration 0.5): 9.146 log10(CFU/ml) and 9.322 log10(CFU/ml) and 9.255 log10(CFU/ml)
- killing, average Δlog10(CFU/ml) [2, 10]: 0.143 log10(CFU/ml)
- log10(CFU/ml) after treatment ([2]; concentration 2.5): 9.230 log10(CFU/ml) (2×) and 9.322 log10(CFU/ml)
- killing, average Δlog10(CFU/ml) [2, 11]: 0.123 log10(CFU/ml)
- killing, average Δlog10(CFU/ml) ([2]; drug concentration 10): 0.517 log10(CFU/ml)
- log10(CFU/ml) after treatment ([3]; concentration 0.1): 8.505 log10(CFU/ml) and 8.653 log10(CFU/ml) and 8.820 log10(CFU/ml)
- log10(CFU/ml) after treatment ([3]; concentration 0.5): 8.114 log10(CFU/ml) and 8.380 log10(CFU/ml) and 8.643 log10(CFU/ml)
- log10(CFU/ml) after treatment ([3]; concentration 2.5): 6.322 log10(CFU/ml) and 7.690 log10(CFU/ml) and 8.255 log10(CFU/ml)
- reduction of non-growing S. aureus ([3]; at 10 µM, 24 h treatment): below the limit of detection
